# Measured values taken from patent publication US20230203096A1, “EPHA4 TARGETING COMPOUNDS AND METHODS OF USE THEREOF” (priority 2020, published 2023).
# Square brackets hold non-standard residues; d marks the D form. Peptide text beside a SMILES is read from it. * marks the point of attachment. Cyclohexanoyl(1S,3S-3-NH2) = N[C@H]1CCC[C@H](C(=O)*)C1; Trp(5-OH) = N[C@@H](Cc1c[nH]c2ccc(O)cc12)C(=O)O; NH(4-morpholinophenyl) = c1cc(N2CCOCC2)ccc1N*; Bip = N[C@@H](Cc1ccc(-c2ccccc2)cc1)C(=O)O; hArg = N=C(N)NCCCC[C@H](N)C(=O)O
# Columns and labels:
# EphA4-LBD and ephrinA5 = molecular target: T1, EphA4-LBD and ephrinA5 (Homo sapiens, UniProt P54764, C204A); experiment: ephrinA5 displacement by 2D [13C,1H] correlation NMR; type: binding; details: ^1H] correlation spectra
# T1 construct: His tag (N); made in house; host or cells: E. coli Rosetta-Gami B(DE3) for EphA4-LBD; ephrin-A5 purchased from Sino Biological US Inc (catalogue number not given)
# T1 sequence (P54764 29-209 C204A): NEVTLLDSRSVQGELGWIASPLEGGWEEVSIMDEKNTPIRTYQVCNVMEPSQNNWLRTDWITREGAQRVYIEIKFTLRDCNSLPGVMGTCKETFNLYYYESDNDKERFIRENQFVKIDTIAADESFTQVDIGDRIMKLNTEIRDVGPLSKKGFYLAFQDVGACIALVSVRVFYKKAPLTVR
# Experimental: NMR spectra were acquired on Bruker Avance III 700 MHz spectrometer equipped with a TCI cryoprobe. All NMR data were processed and analyzed using TOPSPIN 3.6.1 (Bruker, Billerica, Mass., USA). 2D-[^13C,^1H]-HSQC experiments were acquired with 20 μM proteins using 8 scans with 2,048 and 256 complex data points in the ^1H and […] dimensions, respectively, at 298 K. For the 150D4 NMR titrations in FIG. 8 2D-[^13C,^1H]-HSQC experiments were acquired using 16 scans per increment, and for ephrinA5 binding studies (FIG. 8) with 10 μM protein, using 32 scans per increment.
# EphA2-LBD = EphA2-LBD (Homo sapiens, UniProt P29317); experiment: Isothermal titration calorimetry (ITC) against EphA2-LBD
# EphA2-LBD, sequence (P29317 27-200): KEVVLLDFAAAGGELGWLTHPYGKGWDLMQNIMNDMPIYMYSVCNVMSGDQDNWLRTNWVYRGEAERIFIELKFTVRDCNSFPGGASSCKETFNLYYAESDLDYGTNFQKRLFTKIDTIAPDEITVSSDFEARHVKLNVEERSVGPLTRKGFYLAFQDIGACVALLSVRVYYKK
# Experimental: Isothermal titration calorimetry (ITC) measurements were performed using the Affinity ITC Autosampler from TA Instruments (New Castle, Del.). The titrations were performed in a reverse fashion by titrating the protein into the ligand solution. […] The injections were made at 200 s or 400 s intervals with a stirring speed of 75 rpm. All the solutions were kept in the autosampler at 4° C. The analysis of the thermodynamics signatures and for dissociation constant determination was performed by the NanoAnalyze software (TA Instruments, New Castle, Del.) and subsequently exported into Microsoft Excel.
smiles,measurement,setting,value
"N=C(N)NCCCC[C@H](NC(=O)[C@H](Cc1ccc(-c2ccccc2)cc1)NC(=O)[C@H](Cc1c[nH]c2ccc(O)cc12)NC(=O)[C@H]1CCC[C@H](N)C1)C(=O)NCC(=O)Nc1ccc(N2CCOCC2)cc1 [Compound 8, (1S,3S)—N—((S)-1-(((S)-3-([1,1′-biphenyl]-4-yl)-1-(((S)-6-guanidino-1-((2-((4-morpholinophenyl)amino)-2-oxoethyl)amino)-1-oxohexan-2-yl)amino)-1-oxopropan-2-yl)amino)-3-(5-hydroxy-1H-indol-3-yl)-1-oxopropan-2-yl)-3-aminocyclohexane-1-carboxamide] ({Cyclohexanoyl(1S,3S-3-NH2)}-[Trp(5-OH)][Bip][hArg]G-{NH(4-morpholinophenyl)})",displacement of ephrinA5 binding to EphA4-LBD,EphA4-LBD and ephrinA5,efficiently displaces the binding of ephrinA5
same,binding to EphA2 (in words),EphA2-LBD,limited binding
